Source: patent EP0429372A1, “2-Azolyl nicotinate derivatives as herbicides” (RHONE-POULENC AGROCHIMIE, priority 1989, dated 1991)

Columns and labels:
Type in all cases: in vivo
Digitaria sanguinalis = assay: Example B: post-emergence herbicidal application, pot test
Source text: (§1) Dans des pots de 7 x 7 x 8 cm remplis de terre agricole légère, on sème un nombre de graines déterminé en fonction de l'espèce végétale et de la grosseur de la graine.
(§2) On recouvre ensuite les graines d'une couche de terre d'environ 3 mm d'épaisseur et on laisse germer la graine jusqu'à ce qu'elle donne naissance à une plantule au stade convenable. Le stade de traitement pour les graminées est le stade "deuxième feuille en formation ". Le stade de traitement pour les dicotylédones, est le stade "cotylédons étalés, première feuille vraie en développement".
(§3) Les pots sont alors traités par pulvérisation de bouillie en quantité correspondant à une dose volumique d'application de 500 l/ha et contenant la matière active à la concentration désirée.
(§4) La bouille a été préparée de la même manière qu'à l'exemple A.
(§5) Les pots traités sont ensuite placés dans des bacs destinés à recevoir l'eau d'arrosage, en subirrigation, et maintenus pendant 24 jours à température ambiante sous 70 % d'humidité relative.
(§6) Au bout de 24 jours, on mesure un pourcentage (D) de destruction du nombre de pieds dans le pot traité par rapport au nombre de plantes dans les pots non traités (témoin). On mesure, sur les plantes traitées restantes, le pourcentage de réduction de taille (RT) par rapport aux plantes témoin.
(§7) Le pourcentage du volume foliaire non détruit par le produit est donc donné par la formule : [formula]
(§8) Cette valeur A est transformée en notation de 0 à 5 selon l'échelle suivante :
(§9) Les résultats obtenus sont présentés après le tableau A pour des doses d'application de 4000 g/ha.

Lolium multiflorum = assay: as above
Source text: as §1, §2, §3, §4, §5, §6, §7, §8, §9

Sinapis alba = assay: as above
Source text: as §1, §2, §3, §4, §5, §6, §7, §8, §9

Echinochloa crusgalli = assay: as above
Source text: as §1, §2, §3, §4, §5, §6, §7, §8, §9

Solanum nigrum [1] = assay: as above
Source text: as §1, §2, §3, §4, §5, §6, §7, §8, §9

Ipomea purpurea = assay: as above
Source text: as §1, §2, §3, §4, §5, §6, §7, §8, §9

Ipomea pupurea = assay: Example C: selectivity test in major crops, post-emergence application; conditions: weed, post-emergence, dose 1 kg/ha, 24 days, score 0-5
Source text: as §1
(§10) On recouvre ensuite les graines d'une couche de terre d'environ 3 mm d'épaisseur et on laisse germer la graine jusqu'à ce qu'elle donne naissance à une plantule au stade convenable. Le stade de traitement pour les graminées est le stade "deuxième feuille en formation". Le stade de traitement pour les dicotylédones, est le stade "cotylédons étalés, première feuille vraie en développement".
as §3
(§11) La bouillie a été préparée de la même manière qu'à l'exemple A.
as §5, §6
(§12) Le pourcentage de volume foliaire non détruit par le produit est donc donné par la formule : [formula]
as §8
(§13) Ainsi, un produit est jugé comme sélectif vis à vis de la culture lorsque la valeur A notée est de 0 ou 1.
(§14) Les résultats obtenus sont présentés dans l'exemple C pour des doses d'application comprises entre 0,5 et 4 kg de matière active par hectare selon les produits.

Viola tricolor = assay: as above; conditions: weed, dose 1 kg/ha, 24 days, score 0-5
Source text: as §1, §10, §3, §11, §5, §6, §12, §8, §13, §14

Solanum nigrum [2] = assay: as above; conditions: weed, dose 1 kg/ha, 24 days, score 0-5
Source text: as §1, §10, §3, §11, §5, §6, §12, §8, §13, §14

Sesbania exaltata = assay: as above; conditions: weed, dose 1 kg/ha, 24 days, score 0-5
Source text: as §1, §10, §3, §11, §5, §6, §12, §8, §13, §14

Xanthium pennsylvanicum = assay: as above; conditions: weed, dose 1 kg/ha, 24 days, score 0-5
Source text: as §1, §10, §3, §11, §5, §6, §12, §8, §13, §14

[3] = 4 kg/ha, rated after 24 days, score 0-5 from % leaf volume not destroyed

| Compound | ACTIVITE DE POST-LEVEE DIG (Digitaria sanguinalis; 4000 g/ha, 576 h) | ACTIVITE DE POST-LEVEE LOL (Lolium multiflorum; 4000 g/ha, 576 h) | ACTIVITE DE POST-LEVEE SIN (Sinapis alba; 4000 g/ha, 576 h) | ACTIVITE DE POST-LEVEE ECH (Echinochloa crusgalli; 4000 g/ha, 576 h) | ACTIVITE DE POST-LEVEE SOL (Solanum nigrum [1]; 4000 g/ha, 576 h) | ACTIVITE DE POST-LEVEE IPO (Ipomea purpurea; 4000 g/ha, 576 h) | ACTIVITE DE POST-LEVEE LOL (Lolium multiflorum; [3]) | ACTIVITE DE POST-LEVEE SIN (Sinapis alba; [3]) | ACTIVITE DE POST-LEVEE ECH (Echinochloa crusgalli; [3]) | ACTIVITE DE POST-LEVEE IPO (Ipomea purpurea; [3]) | ACTIVITE HERBICIDE DE POST LEVEE I P O (Ipomea pupurea) | ACTIVITE HERBICIDE DE POST LEVEE V I O (Viola tricolor) | ACTIVITE HERBICIDE DE POST LEVEE S O L (Solanum nigrum [2]) | ACTIVITE HERBICIDE DE POST LEVEE S E S (Sesbania exaltata) | ACTIVITE HERBICIDE DE POST LEVEE X A N (Xanthium pennsylvanicum) | ACTIVITE DE POST-LEVEE DIG (Digitaria sanguinalis; [3]) | ACTIVITE DE POST-LEVEE SOL (Solanum nigrum [1]; [3]) |
| --- | --- | --- | --- | --- | --- | --- | --- | --- | --- | --- | --- | --- | --- | --- | --- | --- | --- |
| CN(C)S(=O)(=O)n1nc(-c2ccc(Cl)cc2Cl)nc1-c1ncccc1C(=O)O [compound 3] | 0 (90 à 100) | 0 (90 à 100) | 2 (50 à 70) | 0 (90 à 100) | 3 (30 à 50) | 2 (50 à 70) | – | – | – | – | – | – | – | – | – | – | – |
| CCN(CC)S(=O)(=O)n1nc(-c2ccccc2)nc1-c1ncccc1C(=O)O [compound 4] | 3 (30 à 50) | – | 2 (50 à 70) | 3 (30 à 50) | 1 (70 à 90) | 2 (50 à 70) | – | – | – | – | – | – | – | – | – | – | – |
| CN(C)S(=O)(=O)n1nc(C(C)(C)C)nc1-c1ncccc1C(=O)O [compound 12] | 0 (90 à 100) | 0 (90 à 100) | 4 (10 à 30) | 0 (90 à 100) | 4 (10 à 30) | 3 (30 à 50) | – | – | – | – | – | – | – | – | – | – | – |
| O=C(O)c1cccnc1-c1nc(-c2ccccc2)nn1S(=O)(=O)N1CCCC1 [compound 15] | 3 (30 à 50) | 3 (30 à 50) | 1 (70 à 90) | 3 (30 à 50) | 1 (70 à 90) | 2 (50 à 70) | – | – | – | – | – | – | – | – | – | – | – |
| COC(=O)c1cccnc1-c1nc(-c2ccccc2)nn1S(=O)(=O)c1ccccc1Cl [compound 24] | 0 (90 à 100) | 0 (90 à 100) | 3 (30 à 50) | 0 (90 à 100) | 3 (30 à 50) | 3 (30 à 50) | – | – | – | – | – | – | – | – | – | – | – |
| O=C(O)c1cccnc1-c1n[nH]c(-c2ccccc2)n1 [compound 42, 3 - (3 - carboxy 2 - pyridyl) 5 - phényl 1,2,4 - triazole] | – | – | – | – | – | – | 1 (70 à 90) | 4 (10 à 30) | 2 (50 à 70) | 4 (10 à 30) | – | – | – | – | – | – | – |
| O=C(O)c1cccnc1-c1n[nH]c(-c2ccc(Cl)cc2Cl)n1 [compound 43] | 3 (30 à 50) | 3 (30 à 50) | 5 (O à 10) | 4 (10 à 30) | 3 (30 à 50) | 4 (10 à 30) | – | – | – | – | – | – | – | – | – | – | – |
| O=C(O)c1cccnc1-c1n[nH]c(-c2sc(Cl)c(Cl)c2Cl)n1 [compound 44] | 1 (70 à 90) | 0 (90 à 100) | 4 (10 à 30) | 2 (50 à 70) | 1 (70 à 90) | 3 (30 à 50) | – | – | – | – | – | – | – | – | – | – | – |
| O=C(O)c1cccnc1-c1n[nH]c(Cc2ccccc2)n1 [compound 45] | 3 (30 à 50) | 2 (50 à 70) | 2 (50 à 70) | 3 (30 à 50) | 3 (30 à 50) | 3 (30 à 50) | – | – | – | – | – | – | – | – | – | – | – |
| O=C(O)c1cccnc1-c1n[nH]c(-c2cccc(Cl)c2)n1 [compound 48] | 3 (30 à 50) | 2 (50 à 70) | 2 (50 à 70) | 3 (30 à 50) | 1 (70 à 90) | 3 (30 à 50) | – | – | – | – | – | – | – | – | – | – | – |
| O=C(O)c1cccnc1-c1n[nH]c(-c2cc(Cl)cc(Cl)c2)n1 [compound 50] | 2 (50 à 70) | 0 (90 à 100) | 0 (90 à 100) | 3 (30 à 50) | 0 (90 à 100) | 3 (30 à 50) | – | – | – | – | – | – | – | – | – | – | – |
| Cc1ccccc1-c1nc(-c2ncccc2C(=O)O)n[nH]1 [compound 54] | 3 (30 à 50) | 3 (30 à 50) | 1 (70 à 90) | 2 (50 à 70) | 3 (30 à 50) | 0 (90 à 100) | – | – | – | – | – | – | – | – | – | – | – |
| O=C(O)c1cccnc1-c1n[nH]c(C=Cc2ccccc2)n1 [compound 67] | 2 (50 à 70) | 0 (90 à 100) | 2 (50 à 70) | 0 (90 à 100) | 2 (50 à 70) | 3 (30 à 50) | – | – | – | – | – | – | – | – | – | – | – |
| O=C(O)c1cccnc1-c1n[nH]c(-c2cc(Cl)ccc2Cl)n1 [compound 73] | 2 (50 à 70) | 2 (50 à 70) | 3 (30 à 50) | 3 (30 à 50) | 3 (30 à 50) | 3 (30 à 50) | – | – | – | – | – | – | – | – | – | – | – |
| CN(C)S(=O)(=O)n1c(-c2ncccc2C(=O)O)nc2ccccc21 [compound 75, 2-(1-N,N diméthylsulfamoyl 2-benzimidazolyl) 3-carboxy pyridine] | – | – | – | – | – | – | – | 5 (O à 10) | 0 (90 à 100) | 4 (10 à 30) | 5 (O à 10) | 4 (10 à 30) | 5 (O à 10) | 5 (O à 10) | 5 (O à 10) | 0 (90 à 100) | 5 (O à 10) |
| CN(C)S(=O)(=O)n1c(-c2ncccc2C(=O)O)nc2ccccc21 [compound 121] | 0 (90 à 100) | – | 5 (O à 10) | 3 (30 à 50) | 5 (O à 10) | 4 (10 à 30) | – | – | – | – | – | – | – | – | – | – | – |
